{
  "source": "patent US6676951B1",
  "about": "“Host-guest processes and formulations for delivering bio-affecting compounds” (priority 1999, dated 2004)",
  "origin": "cited, not measured here",
  "details": "C=O bond external to the ring",
  "data": [
    {"smiles": "O=C1O[C@H]([C@@H](O)CO)C(O)=C1O", "note": "[ascorbic acid, L-ascorbic acid]", "values": [
      {"measurement": "pKa of the C=O external to the ring structure", "result": 4.5}
    ]}
  ]
}
